Read-outs that look alike come from different tables or passages of the source.
Tests used:
KV10.1 [1] = molecular target: T1, KV10.1 (Homo sapiens, UniProt O95259); assay: Whole-cell patch clamp on HEK-293 cells stably expressing KV10.1; type: cell-based; conditions: for inhibition at 50 µM: HEK293, compound concentration 50 μM, stimuli to +40 mV, mean ± standard error, read-out: Effect on Kv10.1 (% Inhibition)
T1 construct: expressed in transfected cells
T1 sequence (O95259 1-962 isoform O95259-2): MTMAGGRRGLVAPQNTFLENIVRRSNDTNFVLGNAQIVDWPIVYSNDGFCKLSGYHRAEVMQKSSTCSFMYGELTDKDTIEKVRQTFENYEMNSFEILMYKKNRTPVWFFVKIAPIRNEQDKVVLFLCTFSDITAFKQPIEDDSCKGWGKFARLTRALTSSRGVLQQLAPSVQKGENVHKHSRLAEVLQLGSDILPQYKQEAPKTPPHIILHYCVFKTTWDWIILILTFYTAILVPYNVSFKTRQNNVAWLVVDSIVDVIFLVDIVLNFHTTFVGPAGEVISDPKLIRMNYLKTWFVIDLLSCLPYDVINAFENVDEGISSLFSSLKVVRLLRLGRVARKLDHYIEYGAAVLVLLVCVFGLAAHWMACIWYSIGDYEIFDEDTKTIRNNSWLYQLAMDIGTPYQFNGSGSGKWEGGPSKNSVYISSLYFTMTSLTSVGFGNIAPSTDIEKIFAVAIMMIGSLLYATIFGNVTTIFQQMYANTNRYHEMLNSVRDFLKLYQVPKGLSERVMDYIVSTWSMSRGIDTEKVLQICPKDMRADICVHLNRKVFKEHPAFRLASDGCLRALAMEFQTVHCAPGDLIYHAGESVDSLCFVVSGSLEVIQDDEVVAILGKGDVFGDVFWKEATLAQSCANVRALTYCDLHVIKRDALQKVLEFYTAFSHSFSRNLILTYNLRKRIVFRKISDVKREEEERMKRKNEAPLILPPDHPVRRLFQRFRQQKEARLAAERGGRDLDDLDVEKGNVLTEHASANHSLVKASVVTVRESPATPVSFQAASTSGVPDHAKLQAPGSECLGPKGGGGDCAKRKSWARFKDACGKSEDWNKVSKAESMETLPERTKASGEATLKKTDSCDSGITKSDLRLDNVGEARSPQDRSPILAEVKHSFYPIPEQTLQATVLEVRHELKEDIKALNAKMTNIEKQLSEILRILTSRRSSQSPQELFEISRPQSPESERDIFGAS
Protocol: (§1) Whole-cell patch clamp experiments were performed on stably transfected HEK-293 cells. The cells were grown on fibronectin-coated glass coverslips in DMEM supplemented with 10% FCS and 300 µg/mL Zeocin. Experiments were performed at room temperature under continuous perfusion. The extracellular solution contained (mM) 160 NaCl, 2.5 KCl, 2 CaCl2, 1 MgCl2, 10 Hepes/NaOH, pH 7.4, 8 glucose. For the experiments determining conductance–voltage relationships, tail currents were made visible by substituting 60 mM NaCl by KCl ([…], 100 NaCl). Pipettes were pulled from #1 glass capillaries (WPI) to resistances of 1–3 MΩ when loaded with the intracellular solution (100 KCl, 45 N-methyl-D-glucamine, 10 1,2-bis(o-aminophenoxy)ethane-N,N,N′,N′-tetraacetic acid (BAPTA), 10 Hepes pH 7.35). Data acquisition was performed using a EPC10 Plus amplifier (HEKA Elektronik) and Patch Master software. Drug application was performed using an 8-channel fast solution exchanger (ALA). All compounds were dissolved in DMSO to a final concentration of 10 mM. 0.5% DMSO in extracellular solution served as control. KV10.1 currents were elicited by 500 ms depolarisations to +40 mV under continuous perfusion with the compound-containing or control solution. hERG current amplitudes were measured as the peak tail current during a 4 s repolarization to −40 mV after a depolarising pulse to +20 mV lasting for 2 s.
The nine selected in silico hits were tested by manual patch-clamp on a HEK293 cell line stably expressing KV10.1 [33] at a compound concentration of 50 μM (Table 1). Compound activity was tested by determining the current amplitude elicited by repetitive stimuli to +40 mV from a holding potential of −80 mV. […] The hit compound ZVS-08 represents a new structural class of KV10.1 inhibitors with diarylamine structure and has a unique structure among the acquired virtual screening hits. […] The most notable change from the purpurealidin analogues is the replacement of the hydrogen bond acceptor group of the amide bond with the oxygen atom of the nitro group of ZVS-08.

hERG = molecular target: T2, hERG (Homo sapiens, UniProt Q12809); assay: Whole-cell patch clamp on stably transfected HEK-293 cells, hERG tail current; type: cell-based; conditions: peak tail current at −40 mV after +20 mV
T2 construct: expressed in transfected cells
T2 sequence (Q12809 whole entry): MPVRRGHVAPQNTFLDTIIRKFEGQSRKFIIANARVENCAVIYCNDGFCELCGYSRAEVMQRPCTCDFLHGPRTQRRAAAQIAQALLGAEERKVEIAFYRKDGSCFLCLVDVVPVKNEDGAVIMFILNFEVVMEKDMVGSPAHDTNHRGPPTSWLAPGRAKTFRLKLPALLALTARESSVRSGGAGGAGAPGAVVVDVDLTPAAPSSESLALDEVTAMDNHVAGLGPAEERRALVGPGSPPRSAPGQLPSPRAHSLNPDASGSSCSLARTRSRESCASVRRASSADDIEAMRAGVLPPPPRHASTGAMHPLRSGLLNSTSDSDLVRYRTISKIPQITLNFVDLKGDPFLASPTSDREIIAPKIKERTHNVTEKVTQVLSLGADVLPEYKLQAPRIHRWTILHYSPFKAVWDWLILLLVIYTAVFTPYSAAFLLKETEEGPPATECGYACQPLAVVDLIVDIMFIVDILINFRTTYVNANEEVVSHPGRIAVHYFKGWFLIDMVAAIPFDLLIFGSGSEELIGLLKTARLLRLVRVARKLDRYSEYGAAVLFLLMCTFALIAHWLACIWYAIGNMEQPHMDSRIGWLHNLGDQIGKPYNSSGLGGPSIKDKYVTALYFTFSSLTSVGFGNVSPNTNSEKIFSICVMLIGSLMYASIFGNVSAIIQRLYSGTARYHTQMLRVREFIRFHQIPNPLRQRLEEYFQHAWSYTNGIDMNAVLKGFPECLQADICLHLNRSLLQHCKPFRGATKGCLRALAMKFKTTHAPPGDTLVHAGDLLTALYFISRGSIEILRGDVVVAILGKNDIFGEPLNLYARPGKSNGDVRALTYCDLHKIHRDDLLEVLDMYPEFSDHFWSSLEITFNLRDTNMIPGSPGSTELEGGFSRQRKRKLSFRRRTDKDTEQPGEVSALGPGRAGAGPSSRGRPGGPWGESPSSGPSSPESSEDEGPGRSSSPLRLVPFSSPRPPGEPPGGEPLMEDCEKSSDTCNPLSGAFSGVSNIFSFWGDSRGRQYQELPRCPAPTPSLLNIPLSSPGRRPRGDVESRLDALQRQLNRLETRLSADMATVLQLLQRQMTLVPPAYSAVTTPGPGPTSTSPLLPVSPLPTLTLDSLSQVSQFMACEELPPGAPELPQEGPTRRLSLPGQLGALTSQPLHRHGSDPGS
Protocol: as §1

MCF-7 cells = assay: Cell growth in 2D culture (Incucyte confluence, 72 h), MCF-7; type: cell-based; conditions: high KV10.1 and low hERG expression
Protocol: (§2) Cell lines MCF-7 (DSMZ ACC 115), PANC-1 (DSMZ ACC 783), and hTERT-RPE1 (ATCC CRL 4000) were grown in the media recommended by the cell provider in a humidified atmosphere at 5% CO2 and 37 °C. For cell growth experiments, 10^4 cells/well were seeded in 96-well flat bottom culture plates (Corning) and allowed to grow for 24 h. The compounds were then added in the corresponding growth medium, and the plate was imaged every hour for 72 h (two images per well and eight wells per condition in two independent experiments for compound 8 and five for ZVS-08 and compound 1) in an Incucyte system (Sartorius/Essen biosciences). Culture confluence was determined in the phase contrast images and is expressed as percent confluence per well. The growth was then normalised to the value in the absence of compounds.
KV10.1 inhibitors with a favourable pharmacological profile are promising candidates for cancer therapy. To investigate the activity of the new compounds on cancer cells proliferation, compounds ZVS-08, 1 and 8 were tested on MCF-7, a breast cancer cell line showing high KV10.1 expression and low hERG expression, and on Panc1, a pancreatic cancer cell line with undetectable KV10.1 expression and high level of hERG expression. hTERT-RPE1 cells served as a non-cancer cell line. hTERT-RPE1 cells show transient physiological expression of Kv10.1 that begins during the G2 phase of the cell cycle and extends through mitosis as present in normal cells. Different concentrations of the compounds were added to the culture medium and the growth of the cell was monitored over 72 h (Figure 14).

Panc1 cells = assay: Cell growth in 2D culture (Incucyte confluence, 72 h), Panc1; type: cell-based; conditions: Homo sapiens, PANC-1, no KV10.1 and high hERG expression
Protocol: as §2
KV10.1 inhibitors with a favourable pharmacological profile are promising candidates for cancer therapy. […] Different concentrations of the compounds were added to the culture medium and the growth of the cell was monitored over 72 h (Figure 14).

Colo357 tumour spheroids = assay: Apoptosis (caspase 3/7 reporter) in tumour spheroids; type: cell-based; conditions: 50 µM, caspase reporter fluorescence over 72 h, 8.9 µM cycloheximide as sensitizer
Protocol: Spheroids were cultured in round bottom ultra-low attachment 96-well plates (Corning) at a density of 5000 cells/well in 2% Matrigel (Corning) and centrifuged at 1000× g for 10 min. Spheroid formation was monitored continuously in the Incucyte system and treatments were added once spheroids were formed. As apoptosis sensitizer, 8.9 µM cycloheximide was added to controls and treated spheroids. Caspase 3/7 green reagent (Sartorius; 1:1000) was used as recommended by the manufacturer. Caspase 3/7 reagent substrate crosses the cell membrane and its cleavage by activated caspase-3/7 results in the release of a DNA dye and fluorescent staining of nuclear DNA.
To test the ability of the compounds to inhibit tumour progression in a more predictive system, we performed experiments on tumour spheroids of the pancreatic cancer cell line Colo357, which grows efficiently in this culture modality. The cells were seeded in the presence of Matrigel (see methods), allowed to form spheroids, and the compounds (50 µM) were added to the growth medium. The control contained the same amount of the vehicle (0.5% DMSO). Apoptosis was monitored by addition of a fluorescent […] activity reporter at the same time as the compounds. Cleavage of the reporter by caspase results in green florescence, and the intensity of the fluorescence was recorded over 72 h.

KV10.1 [2] = molecular target: T1, KV10.1; assay: Whole-cell patch clamp on HEK-293 cells stably expressing KV10.1; type: cell-based; conditions: for inhibition at 10 µM: HEK293, mean ± standard error (or range); for KV10.1 inhibitory activity: SAR discussion of Table 3 (10 μM)
KV10.1 [3] = molecular target: T1, KV10.1; parameters: method as in PMID 15365094; conditions: open-channel blocker; cited from earlier work

Row | inhibition at 10 µM (KV10.1 [2]) | inhibition at 50 µM (KV10.1 [1]) | SMILES | further results
1 |  | -1.13 ± 4.5% | Cc1cccnc1C(=O)NCc1cnc(CCC2CCN(C)CC2)cn1 [ZVS-01] | 
2 |  | 5.03 ± 2.87% | CN1CCN(S(=O)(=O)c2ccc(CNC(=O)c3ccccc3)s2)CC1 [ZVS-02] | 
3 |  | -1.14 ± 3.47% | CN1CCOC(c2nccc(CNC(=O)Cc3cccs3)n2)C1 (stereo not drawn) [ZVS-03] | 
4 |  | -0.86 ± 0.75% | O=C(CCN1CCOCC1)Nc1ccc(S(=O)(=O)Nc2cc(Cl)cc(Cl)c2)cc1 [ZVS-04] | 
5 |  | 8.84 ± 4.92% | CN1CCN(c2cc(CNC(=O)Cc3noc4ccccc34)ccn2)CC1 [ZVS-05] | 
6 |  | -7.5 ± 4.65% | CN1CCN(c2cc(CNC(=O)c3cc(=O)[nH]c4ccccc34)ccn2)CC1 [ZVS-06] | 
7 |  | 4.68 ± 1.63% | COc1ccc(F)cc1C(=O)NCc1cnc(C2CCN(C)C2)[nH]1 (stereo not drawn) [ZVS-07] | 
8 |  | 0.15 ± 1.67% | CN(C)Cc1cncc(C2CCCN2C(=O)c2ccc3c(c2)CCC3)n1 (stereo not drawn) [ZVS-09] | 

The next lines start with the compound.

Row | SMILES | inhibition at 10 µM (KV10.1 [2]) | inhibition at 50 µM (KV10.1 [1]) | further results
9 | CN(C)CCCOc1ccc(Nc2ccc(C(F)(F)F)cc2[N+](=O)[O-])cc1 [Compound 1] | 87.3 ± 4.6% |  | IC50 (KV10.1 [1]; HEK-293, 500 ms depolarisation to +40 mV, read-out: IC50 Kv10.1): 740 nM; IC50 (hERG): 207 nM; IC50 (MCF-7 cells; Homo sapiens, MCF7, 72 h): 5.48 µM; IC50 (MCF-7 cells): ~5 µM; IC50 (Panc1 cells): > 30 µM; apoptosis induction in tumour spheroids (Colo357 tumour spheroids): required longer time, but reached similar efficacy
10 | O=[N+]([O-])c1ccccc1Nc1ccc(OCC(O)CN2CCOCC2)cc1 (stereo not drawn) [Compound 2] | 23.9 ± 26.8% |  | melting point: 95.6 to 97.5 °C
11 | CN(C)CC(O)COc1ccc(Nc2ccccc2)cc1 (stereo not drawn) [Compound 3] | 22.1 ± 33.5% |  | melting point: 88 to 90.1 °C; KV10.1 inhibitory activity (KV10.1 [2]): almost inactive
12 | CN(C)CCCOc1ccc(Nc2ccccc2[N+](=O)[O-])cc1 [Compound 4] | 36.6 ± 19.9% |  | 
13 | O=[N+]([O-])c1cc(C(F)(F)F)ccc1Nc1ccc(OCC(O)CNc2ccccc2)cc1 (stereo not drawn) [Compound 5] | 2.53 ± 11.7% |  | 
14 | CN(C)CC(O)COc1ccc(Nc2ccc(C(F)(F)F)cc2)cc1 (stereo not drawn) [Compound 6] | 57.5 ± 28.4% |  | melting point: 76.3 to 79.1 °C
15 | CN(C)CC(O)COc1ccc(Nc2ccccc2[N+](=O)[O-])cc1 (stereo not drawn) [Compound 7] | 21 ± 30.3% |  | melting point: 76.1 to 77.3 °C
16 | COC(=O)c1ccccc1Nc1ccc(OCC(O)CN(C)C)cc1 (stereo not drawn) [Compound 9] | 2 ± 7.45% |  | KV10.1 inhibitory activity (KV10.1 [2]): inactive
17 | CN(C)CC(O)COc1ccc(Nc2ccc(C(F)(F)F)cc2N)cc1 (stereo not drawn) [Compound 10] | 57 ± 21.7% |  | 
18 | CN(C)CC(O)COc1ccc(Nc2ccccc2C(=O)O)cc1 (stereo not drawn) [Compound 11] | 37.7 ± 7.13% |  | KV10.1 inhibitory activity (KV10.1 [2]): inactive
19 | CC(=O)NCC(O)COc1ccc(Nc2ccc(C(F)(F)F)cc2[N+](=O)[O-])cc1 (stereo not drawn) [Compound 12] | 16.6 ± 38.4% |  | 
20 | COc1ccc(CCN2CCC(Nc3nc4ccccc4n3Cc3ccc(F)cc3)CC2)cc1 [astemizole] |  |  | IC50 (KV10.1 [3]): ~200 nM

— publication PMC8002023, “3D Pharmacophore-Based Discovery of Novel KV10.1 Inhibitors with Antiproliferative Activity” (Cancers, 2021)
